Laboratory results from patent publication US11458121B2, “Therapeutic compounds and methods to treat infection” (priority 2017, dated 2022).
Values after ≈ are worked out from the molar mass of the structure shown. Like-named read-outs stand apart in the source and are kept apart here.

Tests used:
P. aeruginosa PAO1 [1] = assay: Intrinsic MIC assay (CLSI broth microdilution); format: cell-based; settings: Pseudomonas aeruginosa, read-out: Antibiotic Activity Against P. aeruginosa Intrinsic MIC
Excerpt: As used herein, the term “minimum inhibitory concentration (MIC)” refers to the lowest concentration of a compound (e.g., an antibiotic) that prevents visible growth of a bacterium. Assays for measuring the MIC of a compound are known in the art, for example, as described herein. As used herein, the term “intrinsic MIC” refers the MIC of a compound (e.g., an antibiotic) for the particular bacterial species that has not been pre-exposed to the compound. Intrinsic MIC Assays MIC assays were conducted in accordance with Clinical and Laboratory Standards Institute (CLSI) guidelines for broth microdilution. A 96-well plate containing cation-adjusted Mueller-Hinton (CAMH broth with 2-fold serial dilution of compounds was inoculated with log-phase bacterial at 5×10^5 CFU/mL. The final volume in each well was 100 μL. Each compound was tested in duplicate. The microtiter plates were incubated in an aerobic environment for 18 hours at 37° C. Then the bacterial growth was tested by reading the plate with a VersaMax plate reader (Molecular Devices, Inc.) at 600 nm. The MIC was defined as the lowest compound concentration that inhibited 90% of bacteria growth. The intrinsic MIC of the experimental EPIs was tested with the method described. […] The following Gram-negative bacterial strains were included in these assays: Pseudomonas aeruginosa PAO1

P. aeruginosa PAO1 [2] = assay: MIC assay in the presence of a bacterial efflux pump inhibitor (EPI); format: cell-based, Pseudomonas aeruginosa
Experimental: The ability of a compound to produce an antibiotic effect can be determined using a method as described in Example 42. […] MIC assays were conducted in accordance with Clinical and Laboratory Standards Institute (CLSI) guidelines for broth microdilution. A 96-well plate containing cation-adjusted Mueller-Hinton (CAMH broth with 2-fold serial dilution of compounds was inoculated with log-phase bacterial at 5×10^5 CFU/mL. The final volume in each well was 100 μL. Each compound was tested in duplicate. The microtiter plates were incubated in an aerobic environment for 18 hours at 37° C. Then the bacterial growth was tested by reading the plate with a VersaMax plate reader (Molecular Devices, Inc.) at 600 nm. The MIC was defined as the lowest compound concentration that inhibited 90% of bacteria growth. MIC Assays in the Presence of a Bacterial Efflux Inhibitor The EPI assay for the purposes of these studies represents a MIC assay in which the MIC of the antibiotic against the bacteria is tested in the presence of an experimental efflux pump inhibitor (EPI). The highest concentration of the EPI present in the assay typically is ½ of the intrinsic MIC of the compound. […] Using serial dilutions of the EPI, its enhancement of antibiotic activity was then evaluated. The relative EPI activity was decided by comparing the MIC of the antibiotic in the presence of the EPI compound with the intrinsic MIC of the antibiotic alone. For comparative purposes, we generally used EPIs at concentration of 12.5 and 6.25 μg/ml against varying concentration of our test antibiotic.

E. coli 25922 = assay: Intrinsic MIC assay (CLSI broth microdilution); format: cell-based, Escherichia coli; settings: read-out: Antibiotic Activity Against E. coli Intrinsic MIC
Excerpt: As used herein, the term “minimum inhibitory concentration (MIC)” refers to the lowest concentration of a compound (e.g., an antibiotic) that prevents visible growth of a bacterium. Assays for measuring the MIC of a compound are known in the art, for example, as described herein. As used herein, the term “intrinsic MIC” refers the MIC of a compound (e.g., an antibiotic) for the particular bacterial species that has not been pre-exposed to the compound. Intrinsic MIC Assays MIC assays were conducted in accordance with Clinical and Laboratory Standards Institute (CLSI) guidelines for broth microdilution. A 96-well plate containing cation-adjusted Mueller-Hinton (CAMH broth with 2-fold serial dilution of compounds was inoculated with log-phase bacterial at 5×10^5 CFU/mL. The final volume in each well was 100 μL. Each compound was tested in duplicate. The microtiter plates were incubated in an aerobic environment for 18 hours at 37° C. Then the bacterial growth was tested by reading the plate with a VersaMax plate reader (Molecular Devices, Inc.) at 600 nm. The MIC was defined as the lowest compound concentration that inhibited 90% of bacteria growth. The intrinsic MIC of the experimental EPIs was tested with the method described. […] The following Gram-negative bacterial strains were included in these assays: Escherichia coli ATCC 25922

[3] = 18 h, P. aeruginosa PAO1, compound alone, without EPI, MIC = lowest concentration inhibiting 90% of growth
[4] = P. aeruginosa PAO1, fold enhancement with 12.5 ug/ml EPI
[5] = P. aeruginosa PAO1, with 12.5 ug/ml of EPI (2S,4R)-4-(ammoniomethyl)-2-((6-(4-fluorophenyl)-1H-indole-2-carboxamido)methyl)pyrrolidin-1-ium
[6] = Escherichia coli, 18 h, E. coli 25922, compound alone, without EPI

Row | SMILES | MIC (P. aeruginosa PAO1 [1]; [3]) [µg/mL] | Enhancement (intrinsic MIC versus MIC with EPI) (P. aeruginosa PAO1 [2]; [4]) | Antibiotic Activity Against P. aeruginosa MIC with EPI (P. aeruginosa PAO1 [2]; [5]) [µg/mL] | MIC (E. coli 25922; [6]) [µg/mL] | MIC (P. aeruginosa PAO1 [1]; PAO1, 18 h) [µg/mL] | MIC (E. coli 25922; Escherichia coli, 25922, 18 h) [µg/mL] | Antibiotic Activity Against P. aeruginosa MIC with EPI (P. aeruginosa PAO1 [2]) [µg/mL] | Enhancement (intrinsic MIC versus MIC with EPI) (P. aeruginosa PAO1 [2])
1 | Cl.NC1c2[nH]c3ccc(Br)cc3c2CCC1F (centres unmarked) [Example 20, 6-Bromo-2-fluoro-2,3,4,9-tetrahydro-1H-carbazol-1-amine Hydrogen Chloride Salt] | > 256 | (>8x) | 32 | 64 | – | – | – | –
2 | NC1CCCc2c1[nH]c1cc(Cl)c(Cl)cc21 (centres unmarked) [Example 21, 6,7-Dichloro-2,3,4,9-tetrahydro-1H-carbazol-1-amine] | 64 (≈ 251 µM) | (16x) | 4 | 8 (≈ 31.4 µM) | – | – | – | –
3 | NC1CCCc2c1[nH]c1ccc(Cl)c(Cl)c21 (centres unmarked) [Example 22, 5,6-Dichloro-2,3,4,9-tetrahydro-1H-carbazol-1-amine] | 32 (≈ 125 µM) | (>256x) | <0.125 | 4 (≈ 15.7 µM) | – | – | – | –
4 | CC1CCc2c([nH]c3ccc(Br)cc23)C1N (centres unmarked) [Example 23, 6-Bromo-2-methyl-2,3,4,9-tetrahydro-1H-carbazol-1-amine] | 256 (≈ 917 µM) | (16x) | 16 | 16 (≈ 57.3 µM) | – | – | – | –
5 | CC1(C)CCC(N)c2[nH]c3ccc(Br)cc3c21 (centres unmarked) [Example 24, 6-Bromo-4,4-dimethyl-2,3,4,9-tetrahydro-1H-carbazol-1-amine] | – | (4x) | 16 | – | 64 (≈ 218 µM) | 16 (≈ 54.6 µM) | – | –
6 | CC(C)C1CCC(N)c2[nH]c3ccc(Br)cc3c21.Cl (centres unmarked) [Example 25, 6-Bromo-4-isopropyl-2,3,4,9-tetrahydro-1H-carbazol-1-amine Hydrogen Chloride Salt] | – | – | – | – | 64 | 8 | 16 | (4x)
7 | CC1(C)Cc2c([nH]c3ccc(Br)cc23)C(N)C1 (centres unmarked) [Example 26, 6-Bromo-3,3-dimethyl-2,3,4,9-tetrahydro-1H-carbazol-1-amine] | 64 (≈ 218 µM) | (16x) | 4 | 32 (≈ 109 µM) | – | – | – | –
8 | CCOC(=O)C1Cc2c([nH]c3ccc(Br)cc23)C(N)C1 (centres unmarked) [Example 27, Ethyl 1-amino-6-bromo-2,3,4,9-tetrahydro-1H-carbazole-3-carboxylate] | > 256 | (>8x) | 32 | 16 (≈ 47.4 µM) | – | – | – | –
9 | NC1CC(C(=O)O)Cc2c1[nH]c1ccc(Br)cc21 (centres unmarked) [Example 28, 1-Amino-6-bromo-2,3,4,9-tetrahydro-1H-carb azole-3-carboxylic Acid] | > 256 | (>1x) | 256 | > 256 | – | – | – | –
10 | NC1CC(CO)Cc2c1[nH]c1ccc(Br)cc21 (centres unmarked) [Example 29, (1-Amino-6-bromo-2,3,4,9-tetrahydro-1H-carbazol-3-yl)methanol] | 256 (≈ 867 µM) | (8x) | 32 | 64 (≈ 217 µM) | – | – | – | –
11 | CC(C)C1Cc2c([nH]c3ccc(Br)cc23)C(N)C1 (centres unmarked) [Example 30, 6-Bromo-3-isopropyl-2,3,4,9-tetrahydro-1H-carbazol-1-amine] | 64 (≈ 208 µM) | (8x) | 8 | 4 (≈ 13 µM) | – | – | – | –
12 | NC1CC(CN2CCOCC2)Cc2c1[nH]c1ccc(Br)cc21 (centres unmarked) [Example 31, 6-Bromo-3-(morpholinomethyl)-2,3,4,9-tetrahydro-1H-carbazol-1-amine] | 256 (≈ 703 µM) | (4x) | 64 | 64 (≈ 176 µM) | – | – | – | –
13 | NCCNC(=O)C1Cc2c([nH]c3ccc(Br)cc23)C(N)C1 (centres unmarked) [Example 32, 1-Amino-N-(2-aminoethyl)-6-bromo-2,3,4,9-tetrahydro-1H-carb azole-3-carboxamide] | > 256 | (1x) | >256 | > 256 | – | – | – | –
14 | CN(C)C(=O)C1Cc2c([nH]c3ccc(Br)cc23)C(N)C1 (centres unmarked) [Example 33, 1-Amino-6-bromo-N,N-dimethyl-2,3,4,9-tetrahydro-1H-carbazole-3-carboxamide] | > 256 | (>2x) | 128 | 128 (≈ 381 µM) | – | – | – | –
15 | Cl.NC(=O)C1Cc2c([nH]c3ccc(Br)cc23)C(N)C1 (centres unmarked) [Example 34, 1-Amino-6-bromo-2,3,4,9-tetrahydro-1H-carbazole-3-carboxamide Hydrogen Chloride Salt] | 256 | – | 256 | 128 | – | – | – | –
16 | NC1CC(c2ccccc2)Cc2c1[nH]c1ccc(Br)cc21 (centres unmarked) [Example 35, 6-Bromo-3-phenyl-2,3,4,9-tetrahydro-1H-carbazol-1-amine] | > 256 | (>32x) | 8 | 8 (≈ 23.4 µM) | – | – | – | –
17 | CC(C)(C)C1Cc2c([nH]c3ccc(Br)cc23)C(N)C1 (centres unmarked) [Example 36, 6-Bromo-3-(tert-butyl)-2,3,4,9-tetrahydro-1H-carbazol-1-amine] | > 256 | (>32x) | 8 | 8 (≈ 24.9 µM) | – | – | – | –
18 | CC(C)C1Cc2c([nH]c3ccc(Cl)c(Cl)c23)C(N)C1 (centres unmarked) [Example 37, 5,6-Dichloro-3-isopropyl-2,3,4,9-tetrahydro-1H-carbazol-1-amine] | 128 (≈ 431 µM) | (32x) | 4 | 4 (≈ 13.5 µM) | – | – | – | –
